Patent US6673576B1, “Process for producing nucleic acids” (priority 1995, dated 2004)

Assays:
[1] = target: T1, inosine-guanosine kinase derived from Exiguobacterium acetylicum (Exiguobacterium acetylicum, UniProt O24767); assay: Substrate specificity (nucleoside as phosphate receptor) of the purified kinase; assay type: biochemical; conditions: for Relative activity: Nucleoside (0.5 mM) instead of guanosine, [γ-32P]-ATP, guanosine = 100; for use as phosphate receptor (in words): 0.5 mM nucleoside
Procedure: (§1) Fifty microliter of this reaction mixture was used as a basic composition and the reaction was carried out at 30° C. for 10 minutes. The enzyme had the following properties.
The reaction was performed by using 0.5 mM of each of various nucleosides instead of guanosine and [Υ-^32P]-ATP instead of ATP. The thus-formed nucleoside 5′-phosphate was measured.

[2] = target: T1, inosine-guanosine kinase derived from Exiguobacterium acetylicum; assay: Phosphate donor specificity (nucleoside triphosphates) of the purified kinase; assay type: biochemical; conditions: for use as phosphate donor (in words): 5 mM nucleoside triphosphate; for Relative activity: Nucleoside triphosphate (5 mM) instead of ATP, ATP = 100
Procedure: as §1
The reaction was performed by using 5 mM of each of various nucleoside triphosphates instead of ATP, and the possible phosphate donors were examined.

[3] = target: T1, inosine-guanosine kinase derived from Exiguobacterium acetylicum; assay: Effect of metal ions on the purified kinase; assay type: biochemical; conditions: for inhibition of the enzyme by metal ions (in words): 1 mM metal ions; for Relative activity: Metal salts (1 mM) present in the reaction mixture, not added = 100
Procedure: as §1

[4] = target: T1, inosine-guanosine kinase derived from Exiguobacterium acetylicum; assay: Metal requirement of the purified kinase; assay type: biochemical; conditions: for Relative activity: Metal salts (5 mM) instead of magnesium chloride, MgCl2 = 100; for metal requirement (in words): metal ions replacing magnesium chloride
Procedure: as §1
The reaction was performed by changing magnesium chloride to various metal ions in the reaction solution.

[5] = pH and temperature optimum and stability of the purified kinase; assay type: biochemical, Exiguobacterium acetylicum
Procedure: as §1
The reaction was performed by changing the buffer to 100 mM of sodium acetate-acetic acid buffer (pH 4.2-5.6), 2-morphorinoethanesulfonic acid (hereinafter referred to as “MES”)-sodium hydroxide buffer (pH 5.4-6.3), 3-morphorinopropanesulfonic acid (MOPS)-sodium hydroxide buffer (pH 6.3-7.2), Tris-hydrochloride buffer (pH 7.2-8.8), cyclohexylaminopropanesulfonic acid (hereinafter referred to as “CAPS”)- sodium hydroxide buffer (pH 8.8-10.4) or glycine-sodium hydroxide buffer (pH 10.3-11.0). The optimum pH was between 7.7 and 9.9.
The enzyme was treated at room temperature for 30 minutes with 250 mM sodium acetate-acetate buffer ([…]), MES-sodium hydroxide buffer (pH 5.4-6.4), MOPS-sodium hydroxide buffer (pH 6.3-7.3), Tris-hydrochloride buffer (pH 7.2-8.8), CAPS-sodium hydroxide buffer (pH 8.9-10.4) or glycine-sodium hydroxide buffer (pH 10.5-13.3), each containing 2.5 mg/ml of bovine- serum albumin, 25 mM potassium chloride, 0.25 mM dithiothreitol and 5% glycerol. Then, the activity of the enzyme was measured. As a result, the activity of the enzyme was stable within the pH range between 6.7 and 12.1
The reaction was performed within the temperature range between 16° C. and 60° C. […]

[6] = substrate: Nc1nc2c(ncn2[C@@H]2O[C@H](CO)[C@@H](O)[C@H]2O)c(=O)[nH]1; assay: Km values of the purified kinase; assay type: biochemical, Exiguobacterium acetylicum; conditions: other: substrate concentration varied; pH 7.5; 30.0 °C
Procedure: as §1

[7] = substrate: Nc1ncnc2c1ncn2[C@@H]1O[C@H](COP(=O)(O)OP(=O)(O)OP(=O)(O)O)[C@@H](O)[C@H]1O; assay: Km values of the purified kinase; assay type: biochemical, Exiguobacterium acetylicum; conditions: other: for ATP when guanosine was used as a substrate; pH 7.5; 30.0 °C
Procedure: as §1

[8] = substrate: OC[C@H]1O[C@@H](n2cnc3c(O)ncnc32)[C@H](O)[C@@H]1O; assay: Km values of the purified kinase; assay type: biochemical, Exiguobacterium acetylicum; conditions: other: substrate concentration varied; pH 7.5; 30.0 °C
Procedure: as §1

Molecule: Nc1ncnc2c1ncn2[C@H]1C[C@H](O)[C@@H](CO)O1 [2′-deoxyadenosine]
- Relative activity [1]: 0%

Molecule: Nc1ncnc2c1ncn2[C@H]1C[C@H](O)[C@@H](COP(=O)(O)OP(=O)(O)OP(=O)(O)O)O1 [2′-deoxyadenosine triphosphate]
- use as phosphate donor (in words) [2]: used as the phosphate donor
- Relative activity [2]: 71%

Molecule: Nc1ncnc2c1ncn2[C@@H]1O[C@H](COP(=O)(O)OP(=O)(O)OP(=O)(O)O)[C@@H](O)[C@H]1O [adenosine triphosphate]
- use as phosphate donor (in words) [2]: used as the phosphate donor
- Relative activity [2]: 100%

Molecule: Nc1nc2c(ncn2[C@H]2C[C@H](O)[C@@H](COP(=O)(O)OP(=O)(O)OP(=O)(O)O)O2)c(=O)[nH]1 [2′-deoxyguanosine triphosphate]
- use as phosphate donor (in words) [2]: used as the phosphate donor
- Relative activity [2]: 61%

Molecule: Nc1ncnc2c1ncn2[C@@H]1O[C@H](CO)[C@@H](O)[C@H]1O [adenosine]
- Relative activity [1]: 0%

Molecule: [Cl][Cd][Cl] [CdCl2]
- inhibition of the enzyme by metal ions (in words) [3]: also inhibited
- Relative activity [3]: 43%

Molecule: O=c1ccn([C@@H]2O[C@H](COP(=O)(O)OP(=O)(O)OP(=O)(O)O)[C@@H](O)[C@H]2O)c(=O)[nH]1 [uridine triphosphate]
- Relative activity [2]: 4%

Molecule: Nc1ccn([C@@H]2O[C@H](COP(=O)(O)OP(=O)(O)OP(=O)(O)O)[C@@H](O)[C@H]2O)c(=O)n1 [cytidine triphosphate]
- Relative activity [2]: 6%

Molecule: O.O.[Ca+2].[Cl-].[Cl-] [CaCl2.2H2O]
- Relative activity [4]: 1%
- Relative activity [3]: 71%

Molecule: Nc1nc2c(ncn2[C@@H]2O[C@H](CO)[C@@H](O)[C@H]2O)c(=O)[nH]1 [guanosine]
- use as phosphate receptor (in words) [1]: used as a phosphate receptor
- Relative activity [1]: 100%

Molecule: [Cl][Hg][Cl] [HgCl2]
- inhibition of the enzyme by metal ions (in words) [3]: strongly inhibited
- Relative activity [3]: 22%

Molecule: [Cl-].[Cl-].[Zn+2] [ZnCl2]
- Relative activity [4]: 1%
- inhibition of the enzyme by metal ions (in words) [3]: also inhibited
- Relative activity [3]: 58%

Molecule: O.O.[Cl][Cu][Cl] [CuCl2.2H2O]
- inhibition of the enzyme by metal ions (in words) [3]: strongly inhibited
- Relative activity [3]: 25%

Molecule: [Ba+2].[Cl-].[Cl-] [BaCl2]
- Relative activity [3]: 106%

Molecule: O.O.O.O.O.O.[Cl][Ni][Cl] [NiCl2.6H2O]
- Relative activity [4]: 1%
- Relative activity [3]: 113%

Molecule: O.O.O.O.O.O.O.O=S(=O)([O-])[O-].[Fe+2] [FeSO4.7H2O]
- Relative activity [4]: 24%
- metal requirement (in words) [4]: the reaction proceeded
- Relative activity [3]: 95%

Molecule: Nc1nc2c(ncn2[C@H]2C[C@H](O)[C@@H](CO)O2)c(=O)[nH]1 [2′-deoxyguanosine]
- use as phosphate receptor (in words) [1]: used as a phosphate receptor
- Relative activity [1]: 4%

Molecule: O.O.O.O.O.O.[Cl-].[Cl-].[Mg+2] [MgCl2.6H2O]
- Relative activity [4]: 100%
- metal requirement (in words) [4]: the reaction proceeded

Molecule: Nc1nc2c(ncn2[C@@H]2O[C@H](COP(=O)(O)OP(=O)(O)OP(=O)(O)O)[C@@H](O)[C@H]2O)c(=O)[nH]1 [guanosine triphosphate]
- use as phosphate donor (in words) [2]: used as the phosphate donor
- Relative activity [2]: 59%

Molecule: O.O.O.O.O.O.[Cl-].[Cl-].[Co+2] [CoCl2.6H2O]
- Relative activity [4]: 36%
- metal requirement (in words) [4]: the reaction proceeded
- Relative activity [3]: 103%

Molecule: O.O.O.O.O.O.O.O=S(=O)([O-])[O-].[Mg+2] [MgSO4.7H2O]
- Relative activity [4]: 107%
- Relative activity [3]: 110%

Molecule: OC[C@H]1O[C@@H](n2cnc3c(O)ncnc32)[C@H](O)[C@@H]1O [inosine]
- use as phosphate receptor (in words) [1]: used as a phosphate receptor
- Relative activity [1]: 5%

Molecule: O.O.O.O.[Cl][Mn][Cl] [MnCl2.4H2O]
- Relative activity [4]: 55%
- metal requirement (in words) [4]: the reaction proceeded
- Relative activity [3]: 81%

Molecule: O=c1[nH]c(=O)c2ncn([C@@H]3O[C@H](CO)[C@@H](O)[C@H]3O)c2[nH]1 [xanthosine]
- Relative activity [1]: 0%

B1: inosine-guanosine kinase derived from Exiguobacterium acetylicum (Exiguobacterium acetylicum) (protein)
chain: MNKIAVIGKVFVDIKGTSFAPLHKDAKNVGDITFSNGGTGRNVAQNLAVLGNEVRFISTVTNDQIGVGVLDELKSYGANVDHVEMLEDHGMGMWLAVMDNEGDLQTSISKQPDAKLLEEAILRQSIYALDGVDAVAIDLDLSVTVLERLIHLCRKMELPLFGVCGHLSVIERNRHLLQGFTGFICSREEAEILSDLSIVTVEDAIHVANELAKKGAPFTVVTMSELGAVYVDRRTATSGHVGTKKVKVVDSTGAGDSFFSAVLSELTQEKSAEEALKLGMKVAAEVIASTENGLVPEMLDALQ
- residual activity maintained ([5]; treatment at 25° C. or lower for 30 minutes): ≥ 50%
- temperature at which the enzyme was inactivated ([5]; treatment for 30 minutes at 4 to 60° C.): ≥ 40 °C
- Km [6]: 30 µM
- Km [7]: 1600 µM
- Km [8]: 1000 µM
